Experimental data as given in article PMC6116705, “Design, synthesis, in vitro antiproliferative activity and apoptosis-inducing studies of 1-(3′,4′,5′-trimethoxyphenyl)-3-(2′-alkoxycarbonylindolyl)-2-propen-1-one derivatives obtained by a molecular hybridisation approach” (Journal of Enzyme Inhibition and Medicinal Chemistry, 2018).
Like-named read-outs stand apart in the source and are kept apart here.

Key:
[1] = system: human cervix carcinoma (HeLa) cells; assay: Antiproliferative assay, cell counting (Coulter Counter), HeLa; assay type: cell-based; conditions: read-out: IC50, inhibition of proliferation
Method: (§1) Human cervix carcinoma (HeLa), human colon carcinoma (HT29), human breast carcinoma (MCF-7) and human lymphoma (HL-60) cells (3–5 × 10^4 cells) and a serial (five-fold) dilution of the test compounds were added to a 96-well microtiter plate. The cells were incubated for 72–96 h (depending on the tumor cell line) at 37 °C in a humidified 5% CO2 atmosphere. At the end of the incubation period, the cells were counted in a Coulter Counter (Coulter Electronics Ltd, Harpenden Herts, UK). […] The IC50 values represent the average (±standard deviation) of at least two to four independent experiments.

[2] = system: human colon adenocarcinoma (HT29) cells; assay: Antiproliferative assay, cell counting (Coulter Counter), HT29; assay type: cell-based; conditions: read-out: IC50, inhibition of proliferation
Method: as §1

[3] = system: human breast adenocarcinoma (MCF-7) cells; assay: Antiproliferative assay, cell counting (Coulter Counter), MCF-7; assay type: cell-based; conditions: read-out: IC50, inhibition of proliferation
Method: as §1

[4] = system: human promyelocytic leukemia (HL-60) cells; assay: Antiproliferative assay, cell counting (Coulter Counter), HL-60; assay type: cell-based; conditions: read-out: IC50, inhibition of proliferation
Method: as §1

[5] = system: U251 glioblastoma cancer cell line; set-up: method as in PMID 27343855; conditions: read-out: IC50, antiproliferative activity; cited from earlier work
bovine brain tubulin = assay: Inhibition of tubulin polymerisation (turbidimetric tubulin assembly); assay type: biochemical; conditions: tubulin 10 µM, 20 min at 30 °C; read-out: Tubulin assembly IC50±SD
Method: (§2) To evaluate the effect of the compounds on tubulin assembly in vitro[40], varying concentrations of compounds were preincubated with 10 μM bovine brain tubulin in 0.8M monosodium glutamate (pH adjusted to 6.6 with HCl in a 2.0M stock solution) at 30 °C and then cooled to 0 °C. After addition of 0.4 mM GTP, the mixtures were transferred to 0 °C cuvettes in a recording spectrophotometer and warmed to 30 °C. Tubulin assembly was followed turbidimetrically at 350 nm. […] The capacity of the test compounds to inhibit colchicine binding to tubulin was measured as described. The reaction mixtures contained 1 μM tubulin, 5 μM [^3H]colchicine and 5 μM test compound.

[6] = system: tubulin (colchicine site); assay: Inhibition of [3H]colchicine binding to tubulin; set-up: species or system bovine; conditions: tubulin 1 µM, [3H]colchicine 5 µM, compound 5 µM
Method: as §2

[7] = Homo sapiens, HT-29, HT29, 72–96 h
[8] = Homo sapiens, MCF7, MCF-7, 72–96 h
[9] = Homo sapiens, reference compounds in nM
[10] = Homo sapiens, HL-60, reference compounds in nM

| melting point | Compound | IC50 ([1]; Homo sapiens, 72–96 h) | IC50 [2, 7] | IC50 [3, 8] | IC50 ([4]; Homo sapiens, HL-60, 72–96 h) | also measured |
| --- | --- | --- | --- | --- | --- | --- |
| 135 to 136 °C | COC(=O)c1c(/C=C/C(=O)c2cc(OC)c(OC)c(OC)c2)c2ccc(OC)cc2n1C [Compound 9j, (E)-Methyl 6-methoxy-1-methyl-3-(3-oxo-3-(3,4,5-trimethoxyphenyl)prop-1-en-1-yl)-1H-indole-2-carboxylate] | ≥ 100000 nM | 31000 ± 22000 nM | 11000 ± 4000 nM | 14000 ± 10000 nM | – |
| 147 to 149 °C | COC(=O)c1c(/C=C/C(=O)c2cc(OC)c(OC)c(OC)c2)c2ccccc2n1C [Compound 9g, (E)-Methyl 1-methyl-3-(3-oxo-3-(3,4,5-trimethoxyphenyl)prop-1-en-1-yl)-1H-indole-2-carboxylate] | 69000 ± 12000 nM | 10000 ± 4000 nM | 6700 ± 3000 nM | 67000 ± 46000 nM | – |
| 160 to 161 °C | CCOC(=O)c1c(/C=C/C(=O)c2cc(OC)c(OC)c(OC)c2)c2cc(OC)ccc2n1CC [Compound 9m, (E)-Ethyl 1-ethyl-5-methoxy-3-(3-oxo-3-(3,4,5-trimethoxyphenyl)prop-1-en-1-yl)-1H-indole-2-carboxylate] | 24000 ± 2000 nM | 14000 ± 6000 nM | 26000 ± 4000 nM | 19000 ± 10000 nM | – |
| 138 to 140 °C | CCOC(=O)c1c(/C=C/C(=O)c2cc(OC)c(OC)c(OC)c2)c2ccccc2n1C [Compound 9h, (E)-Ethyl 1-methyl-3-(3-oxo-3-(3,4,5-trimethoxyphenyl)prop-1-en-1-yl)-1H-indole-2-carboxylate] | 41000 ± 11000 nM | 5000 ± 1400 nM | 8300 ± 2300 nM | 58000 ± 40000 nM | – |
| 166 to 168 °C | COC(=O)c1c(/C=C/C(=O)c2cc(OC)c(OC)c(OC)c2)c2ccccc2n1Cc1ccccc1 [Compound 9o, (E)-Methyl 1-benzyl-3-(3-oxo-3-(3,4,5-trimethoxyphenyl)prop-1-en-1-yl)-1H-indole-2-carboxylate] | 8200 ± 1500 nM | 11000 ± 6000 nM | 71000 ± 18000 nM | 41000 ± 25000 nM | – |
| 170 to 171 °C | COC(=O)c1c(/C=C/C(=O)c2cc(OC)c(OC)c(OC)c2)c2cc(OC)ccc2n1Cc1ccccc1 [Compound 9q, (E)-Methyl 1-benzyl-5-methoxy-3-(3-oxo-3-(3,4,5-trimethoxyphenyl)prop-1-en-1-yl)-1H-indole-2-carboxylate] | 15000 ± 7000 nM | 18000 ± 10000 nM | 48000 ± 8000 nM | 39000 ± 27000 nM | – |
| 150 to 151 °C | COC(=O)c1c(/C=C/C(=O)c2cc(OC)c(OC)c(OC)c2)c2cc(OC)ccc2n1C [Compound 9i, (E)-Methyl 5-methoxy-1-methyl-3-(3-oxo-3-(3,4,5-trimethoxyphenyl)prop-1-en-1-yl)-1H-indole-2-carboxylate] | 25000 ± 3000 nM | 22000 ± 1000 nM | 2700 ± 900 nM | 28000 ± 3000 nM | – |
| 128 to 130 °C | CCOC(=O)c1c(/C=C/C(=O)c2cc(OC)c(OC)c(OC)c2)c2ccccc2n1Cc1ccccc1 [Compound 9p, (E)-Ethyl 1-benzyl-3-(3-oxo-3-(3,4,5-trimethoxyphenyl)prop-1-en-1-yl)-1H-indole-2-carboxylate] | 61000 ± 41000 nM | 9200 ± 4700 nM | 50000 ± 4000 nM | 9000 ± 5100 nM | – |
| 115 to 117 °C | CCn1c(C(=O)OC)c(/C=C/C(=O)c2cc(OC)c(OC)c(OC)c2)c2ccccc21 [Compound 9k, (E)-Methyl 1-ethyl-3-(3-oxo-3-(3,4,5-trimethoxyphenyl)prop-1-en-1-yl)-1H-indole-2-carboxylate] | 9400 ± 3100 nM | 6700 ± 1200 nM | 11000 ± 10000 nM | 37000 ± 1000 nM | – |
| 141 to 142 °C | CCn1c(C(=O)OC)c(/C=C/C(=O)c2cc(OC)c(OC)c(OC)c2)c2cc(OC)ccc21 [Compound 9l, (E)-Methyl 1-ethyl-5-methoxy-3-(3-oxo-3-(3,4,5-trimethoxyphenyl)prop-1-en-1-yl)-1H-indole-2-carboxylate] | 6800 ± 2600 nM | 10000 ± 6000 nM | 93000 ± 1000 nM | 26000 ± 15000 nM | – |

The next lines start with the compound.

| Compound | melting point | IC50 ([1]; Homo sapiens, 72–96 h) | IC50 [2, 7] | IC50 [3, 8] | IC50 ([4]; Homo sapiens, HL-60, 72–96 h) | also measured |
| --- | --- | --- | --- | --- | --- | --- |
| COC(=O)c1[nH]c2ccccc2c1/C=C/C(=O)c1cc(OC)c(OC)c(OC)c1 [Compound 9a, (E)-Methyl 3-(3-oxo-3-(3,4,5-trimethoxyphenyl)prop-1-en-1-yl)-1H-indole-2-carboxylate] | – | 2000 ± 1000 nM | 7300 ± 1200 nM | 1100 ± 400 nM | 4400 nM | – |
| CCn1c(C(=O)OC)c(/C=C/C(=O)c2cc(OC)c(OC)c(OC)c2)c2ccc(OC)cc21 [Compound 9n, (E)-Methyl 1-ethyl-6-methoxy-3-(3-oxo-3-(3,4,5-trimethoxyphenyl)prop-1-en-1-yl)-1H-indole-2-carboxylate] | 157 to 158 °C | 24000 ± 15000 nM | 19000 ± 9000 nM | 36000 ± 23000 nM | 47000 ± 11000 nM | – |
| COc1ccc2[nH]c(C)c(/C=C/C(=O)c3cc(OC)c(OC)c(OC)c3)c2c1 [compound 3] | – | – | – | – | – | IC50 [5]: > 10 µM |
| COc1ccc2c(/C=C/C(=O)c3cc(OC)c(OC)c(OC)c3)c[nH]c2c1 [4a, reference compound] | – | – | – | – | – | IC50 [1, 9]: 81 ± 2 nM; IC50 ([2]; Homo sapiens, HT-29, HT29, reference compounds in nM): 60 ± 3 nM; IC50 ([3]; Homo sapiens, MCF7, MCF-7, reference compounds in nM): 49 ± 4 nM; IC50 [4, 10]: 23 ± 1 nM |
| COc1ccc(/C=C\c2cc(OC)c(OC)c(OC)c2)cc1O [CA-4, combretastatin A-4, reference compound] | – | – | – | – | – | IC50 [1, 9]: 4 ± 1 nM; IC50 [4, 10]: 1 ± 0.2 nM; IC50 (bovine brain tubulin): […]; Colchicine binding % ±SD (inhibition) [6]: 98 ± 0.9% |
| (E)-Methyl 1-benzyl-6-methoxy-3-(3-oxo-3-(3,4,5-trimethoxyphenyl)prop-1-en-1-yl)-1H-indole-2-carboxylate [Compound 9r] | – | – | – | – | – | IC50 ([1]; 72–96 h): 26000 ± 4000 nM; IC50 ([2]; HT29, 72–96 h): 27000 ± 2000 nM; IC50 ([3]; MCF-7, 72–96 h): 28000 ± 3000 nM; IC50 ([4]; HL-60, 72–96 h): 32000 ± 3000 nM |
| COC(=O)c1[nH]c2ccc(OC)cc2c1/C=C/C(=O)c1cc(OC)c(OC)c(OC)c1 [Compound 9c, (E)-Methyl 5-methoxy-3-(3-oxo-3-(3,4,5-trimethoxyphenyl)prop-1-en-1-yl)-1H-indole-2-carboxylate] | – | 2400 ± 600 nM | 1000 ± 700 nM | 590 nM | 27000 ± 1000 nM | IC50 (bovine brain tubulin): > 20 µM; Colchicine binding % ±SD (inhibition) [6]: 5.3 ± 4% |
| CCOC(=O)c1[nH]c2ccccc2c1/C=C/C(=O)c1cc(OC)c(OC)c(OC)c1 [Compound 9b, (E)-Ethyl 3-(3-oxo-3-(3,4,5-trimethoxyphenyl)prop-1-en-1-yl)-1H-indole-2-carboxylate] | – | 2100 ± 800 nM | 440 ± 330 nM | 1800 ± 1500 nM | – | – |
